From patent publication US6767897B2, “Therapeutic uses of tri-, tetra-, penta-, and polypeptides” (Innapharma, Inc., priority 1994, dated 2004)
Residues, ends and D or L forms follow the SMILES beside them.

Columns and labels:
[1] = test system: animal models for depression; conditions: in vivo; cited from earlier work
[2] = rat, in vivo, sc

Row | Compound | activity in animal models for depression [1] | levels found in the hippocampus and the amygdala [2]
1 | CC(C)C[C@H](NC(=O)[C@@H]1CCCN1)C(=O)NCC(N)=O [MIF, prolyl-leucyl-glycinamide] (H-Pro-Leu-Gly-NH2) | active in a number of animal models for depression | –
2 | 4-F-Phe-cis- or trans-4-OH-Pro-Arg-Gly-Trp-NH2 [SEQ ID NO:43] | – | found at detectable levels and substantially unchaged in the hippocampus and the amygdala
